Columns and labels:
Experiment in all cases: Kinase panel activity
Format in all cases: biochemical
Details in all cases: 0.1 μM, ATP Km
AMPKα2(h) = AMPKα2(h) (Homo sapiens, UniProt P54646)
Procedure: (§1) The effect of NTW-3475 on kinase activity was tested for a wide range of kinases and is shown in Table 2: Summary Sheet, Activity % ATP Concentration: Km

ARK5(h) = ARK5(h) (Homo sapiens, UniProt O60285)
Procedure: as §1

Ab1(H396P)(h) = Ab1(H396P)(h) (Homo sapiens, UniProt P00519, H396P)
Procedure: as §1

CDK1/cyclinB(h) = CDK1/cyclinB(h) (Homo sapiens, UniProt P06493)
Procedure: as §1

CDK2/cyclinA(h) = CDK2/cyclinA(h) (Homo sapiens, UniProt P24941)
Procedure: as §1

CDK9/cyclin T1(h) = CDK9/cyclin T1(h) (Homo sapiens, UniProt P50750)
Procedure: as §1

CK1γ1(h) = CK1γ1(h) (Homo sapiens, UniProt Q9HCP0)
Procedure: as §1

DYRK2(h) = molecular target: T1, DYRK2(h) (Homo sapiens, UniProt Q92630)
T1 construct: purchased Millipore (KinaseProfiler service)
Procedure: as §1

EphA8(h) = molecular target: T2, EphA8(h) (Homo sapiens, UniProt P29322)
T2 construct: purchased Millipore (KinaseProfiler service)
Procedure: as §1

EphB1(h) = molecular target: T3, EphB1(h) (Homo sapiens, UniProt P54762)
T3 construct: purchased Millipore (KinaseProfiler service)
Procedure: as §1

ErbB4(h) = molecular target: T4, ErbB4(h) (Homo sapiens, UniProt Q15303)
T4 construct: purchased Millipore (KinaseProfiler service)
Procedure: as §1

Fms(h) = Fms(h) (Homo sapiens, UniProt P07333)
Procedure: as §1

JAK3(h) = JAK3(h) (Homo sapiens, UniProt P52333)
Procedure: as §1

JNK3(h) = JNK3(h) (Homo sapiens, UniProt P53779)
Procedure: as §1

Lck(h) = Lck(h) (Homo sapiens, UniProt P06239)
Procedure: as §1

MAPK2(m) = MAPK2(m) (Mus musculus, UniProt P63085)
Procedure: as §1

MARK1(h) = molecular target: T5, MARK1(h) (Homo sapiens, UniProt Q9P0L2)
T5 construct: purchased Millipore (KinaseProfiler service)
T5 sequence (Q9P0L2 whole entry): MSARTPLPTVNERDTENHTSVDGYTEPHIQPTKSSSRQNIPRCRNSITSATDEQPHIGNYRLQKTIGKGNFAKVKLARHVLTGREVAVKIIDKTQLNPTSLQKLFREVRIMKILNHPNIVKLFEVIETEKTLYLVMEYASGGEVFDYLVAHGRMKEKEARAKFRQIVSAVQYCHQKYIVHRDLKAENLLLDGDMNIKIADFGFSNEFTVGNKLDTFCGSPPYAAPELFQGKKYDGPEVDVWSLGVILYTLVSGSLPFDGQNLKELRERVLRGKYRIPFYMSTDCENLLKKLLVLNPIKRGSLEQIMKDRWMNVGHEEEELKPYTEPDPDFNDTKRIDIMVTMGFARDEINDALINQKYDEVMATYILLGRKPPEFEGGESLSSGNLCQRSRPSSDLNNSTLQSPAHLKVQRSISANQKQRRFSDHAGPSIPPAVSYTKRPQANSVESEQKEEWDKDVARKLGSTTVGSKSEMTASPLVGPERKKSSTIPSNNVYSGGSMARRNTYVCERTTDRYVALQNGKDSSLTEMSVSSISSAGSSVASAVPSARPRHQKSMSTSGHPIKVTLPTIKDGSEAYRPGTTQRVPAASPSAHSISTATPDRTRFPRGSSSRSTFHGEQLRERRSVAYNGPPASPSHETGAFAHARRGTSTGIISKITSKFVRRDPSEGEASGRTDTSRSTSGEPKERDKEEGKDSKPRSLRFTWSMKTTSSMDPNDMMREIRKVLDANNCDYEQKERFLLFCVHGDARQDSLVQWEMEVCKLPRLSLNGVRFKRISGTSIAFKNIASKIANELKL
Procedure: as §1

MRCKβ(h) = molecular target: T6, MRCKβ(h) (Homo sapiens, UniProt Q9Y5S2)
T6 construct: purchased Millipore (KinaseProfiler service)
Procedure: as §1

MST2(h) = MST2(h) (Homo sapiens, UniProt Q13188)
Chain of MST2(h) (Q13188 whole entry): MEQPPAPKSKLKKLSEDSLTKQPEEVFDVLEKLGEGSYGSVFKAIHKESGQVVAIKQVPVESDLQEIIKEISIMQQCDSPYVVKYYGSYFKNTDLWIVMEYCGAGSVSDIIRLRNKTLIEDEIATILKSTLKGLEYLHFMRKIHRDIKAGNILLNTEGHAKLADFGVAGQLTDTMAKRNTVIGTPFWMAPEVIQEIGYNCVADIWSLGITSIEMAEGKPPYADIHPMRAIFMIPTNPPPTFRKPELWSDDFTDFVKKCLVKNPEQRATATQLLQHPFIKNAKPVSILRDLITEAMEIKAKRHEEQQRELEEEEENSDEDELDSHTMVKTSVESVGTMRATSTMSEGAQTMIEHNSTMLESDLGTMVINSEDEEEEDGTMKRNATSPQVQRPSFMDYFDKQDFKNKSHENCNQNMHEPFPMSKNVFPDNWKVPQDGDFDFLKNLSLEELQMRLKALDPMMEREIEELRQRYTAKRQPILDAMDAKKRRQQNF
Procedure: as §1

Met(D1246H)(h) = molecular target: T7, Met(D1246H)(h) (Homo sapiens, UniProt P08581, D1228H)
T7 construct: purchased Millipore (KinaseProfiler service)
Procedure: as §1

Met(D1246N)(h) = molecular target: T8, Met(D1246N)(h) (Homo sapiens, UniProt P08581, D1228N)
T8 construct: purchased Millipore (KinaseProfiler service)
Procedure: as §1

NEK3(h) = NEK3(h) (Homo sapiens, UniProt P51956)
Chain of NEK3(h) (P51956 whole entry): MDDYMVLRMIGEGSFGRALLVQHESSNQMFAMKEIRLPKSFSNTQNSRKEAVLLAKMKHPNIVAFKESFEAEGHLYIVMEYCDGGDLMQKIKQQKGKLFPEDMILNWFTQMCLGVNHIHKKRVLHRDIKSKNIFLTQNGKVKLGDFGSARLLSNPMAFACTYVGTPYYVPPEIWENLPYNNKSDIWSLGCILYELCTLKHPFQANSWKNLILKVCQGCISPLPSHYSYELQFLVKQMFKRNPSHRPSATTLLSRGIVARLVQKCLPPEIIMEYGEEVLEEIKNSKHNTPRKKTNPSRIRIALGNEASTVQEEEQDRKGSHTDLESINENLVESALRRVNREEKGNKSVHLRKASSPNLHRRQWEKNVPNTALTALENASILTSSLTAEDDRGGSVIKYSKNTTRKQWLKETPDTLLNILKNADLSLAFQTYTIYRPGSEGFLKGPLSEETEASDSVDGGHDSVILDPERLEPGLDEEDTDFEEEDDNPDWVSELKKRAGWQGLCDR
Procedure: as §1

PAK2(h) = PAK2(h) (Homo sapiens, UniProt Q13177)
Chain of PAK2(h) (Q13177 whole entry): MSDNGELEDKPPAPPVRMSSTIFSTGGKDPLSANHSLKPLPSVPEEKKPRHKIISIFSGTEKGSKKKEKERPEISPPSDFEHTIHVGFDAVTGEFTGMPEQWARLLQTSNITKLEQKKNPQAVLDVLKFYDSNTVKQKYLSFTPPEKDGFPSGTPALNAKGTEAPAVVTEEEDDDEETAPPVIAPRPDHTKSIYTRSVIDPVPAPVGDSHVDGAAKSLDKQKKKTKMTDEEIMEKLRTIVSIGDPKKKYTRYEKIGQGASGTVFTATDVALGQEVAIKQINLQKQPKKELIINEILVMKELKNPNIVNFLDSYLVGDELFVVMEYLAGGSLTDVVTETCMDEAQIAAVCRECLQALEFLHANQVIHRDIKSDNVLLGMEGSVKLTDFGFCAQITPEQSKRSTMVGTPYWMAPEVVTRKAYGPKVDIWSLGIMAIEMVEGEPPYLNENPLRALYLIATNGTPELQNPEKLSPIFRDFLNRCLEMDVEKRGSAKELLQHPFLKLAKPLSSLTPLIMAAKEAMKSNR
Procedure: as §1

PKCβII(h) = PKCβII(h) (Homo sapiens, UniProt P05771)
Procedure: as §1

PKD2(h) = PKD2(h) (Homo sapiens, UniProt Q9BZL6)
Procedure: as §1

PKG1α(h) = PKG1α(h) (Homo sapiens, UniProt Q13976)
Procedure: as §1

Pim-3(h) = Pim-3(h) (Homo sapiens, UniProt Q86V86)
Procedure: as §1

Rse(h) = molecular target: T9, Rse(h) (Homo sapiens, UniProt Q06418)
T9 construct: purchased Millipore (KinaseProfiler service)
Procedure: as §1

Rsk1(r) = molecular target: T10, Rsk1(r) (Rattus norvegicus, UniProt Q63531)
T10 construct: purchased Millipore (KinaseProfiler service)
Procedure: as §1

Rsk2(h) = molecular target: T11, Rsk2(h) (Homo sapiens, UniProt P51812)
T11 construct: purchased Millipore (KinaseProfiler service)
T11 sequence (P51812 whole entry): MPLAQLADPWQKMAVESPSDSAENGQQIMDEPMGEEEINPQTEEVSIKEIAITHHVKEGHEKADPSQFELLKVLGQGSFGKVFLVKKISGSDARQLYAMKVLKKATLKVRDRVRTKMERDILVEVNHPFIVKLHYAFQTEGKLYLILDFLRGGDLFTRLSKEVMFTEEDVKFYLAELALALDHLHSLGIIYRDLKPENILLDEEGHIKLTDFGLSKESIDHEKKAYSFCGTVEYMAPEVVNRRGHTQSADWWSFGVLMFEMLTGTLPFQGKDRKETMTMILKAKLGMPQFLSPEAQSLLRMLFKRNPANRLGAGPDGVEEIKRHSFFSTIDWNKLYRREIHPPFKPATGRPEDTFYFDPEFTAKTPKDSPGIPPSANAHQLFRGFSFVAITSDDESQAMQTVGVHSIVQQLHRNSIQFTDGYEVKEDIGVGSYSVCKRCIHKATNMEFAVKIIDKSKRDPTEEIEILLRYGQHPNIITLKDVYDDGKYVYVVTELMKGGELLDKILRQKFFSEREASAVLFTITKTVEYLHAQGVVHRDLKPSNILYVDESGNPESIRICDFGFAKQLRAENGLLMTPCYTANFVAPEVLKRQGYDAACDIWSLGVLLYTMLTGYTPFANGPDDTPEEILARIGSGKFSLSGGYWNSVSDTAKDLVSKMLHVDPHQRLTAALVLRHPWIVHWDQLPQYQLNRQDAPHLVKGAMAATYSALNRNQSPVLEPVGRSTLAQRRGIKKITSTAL
Procedure: as §1

Rsk3(h) = molecular target: T12, Rsk3(h) (Homo sapiens, UniProt Q15349)
T12 construct: purchased Millipore (KinaseProfiler service)
Procedure: as §1

SGK3(h) = molecular target: T13, SGK3(h) (Homo sapiens, UniProt Q96BR1)
T13 construct: purchased Millipore (KinaseProfiler service)
Procedure: as §1

TAO2(h) = molecular target: T14, TAO2(h) (Homo sapiens, UniProt Q9UL54)
T14 construct: purchased Millipore (KinaseProfiler service)
Procedure: as §1

Tie2(h) = molecular target: T15, Tie2(h) (Homo sapiens, UniProt Q02763)
T15 construct: purchased Millipore (KinaseProfiler service)
T15 sequence (Q02763 23-1124): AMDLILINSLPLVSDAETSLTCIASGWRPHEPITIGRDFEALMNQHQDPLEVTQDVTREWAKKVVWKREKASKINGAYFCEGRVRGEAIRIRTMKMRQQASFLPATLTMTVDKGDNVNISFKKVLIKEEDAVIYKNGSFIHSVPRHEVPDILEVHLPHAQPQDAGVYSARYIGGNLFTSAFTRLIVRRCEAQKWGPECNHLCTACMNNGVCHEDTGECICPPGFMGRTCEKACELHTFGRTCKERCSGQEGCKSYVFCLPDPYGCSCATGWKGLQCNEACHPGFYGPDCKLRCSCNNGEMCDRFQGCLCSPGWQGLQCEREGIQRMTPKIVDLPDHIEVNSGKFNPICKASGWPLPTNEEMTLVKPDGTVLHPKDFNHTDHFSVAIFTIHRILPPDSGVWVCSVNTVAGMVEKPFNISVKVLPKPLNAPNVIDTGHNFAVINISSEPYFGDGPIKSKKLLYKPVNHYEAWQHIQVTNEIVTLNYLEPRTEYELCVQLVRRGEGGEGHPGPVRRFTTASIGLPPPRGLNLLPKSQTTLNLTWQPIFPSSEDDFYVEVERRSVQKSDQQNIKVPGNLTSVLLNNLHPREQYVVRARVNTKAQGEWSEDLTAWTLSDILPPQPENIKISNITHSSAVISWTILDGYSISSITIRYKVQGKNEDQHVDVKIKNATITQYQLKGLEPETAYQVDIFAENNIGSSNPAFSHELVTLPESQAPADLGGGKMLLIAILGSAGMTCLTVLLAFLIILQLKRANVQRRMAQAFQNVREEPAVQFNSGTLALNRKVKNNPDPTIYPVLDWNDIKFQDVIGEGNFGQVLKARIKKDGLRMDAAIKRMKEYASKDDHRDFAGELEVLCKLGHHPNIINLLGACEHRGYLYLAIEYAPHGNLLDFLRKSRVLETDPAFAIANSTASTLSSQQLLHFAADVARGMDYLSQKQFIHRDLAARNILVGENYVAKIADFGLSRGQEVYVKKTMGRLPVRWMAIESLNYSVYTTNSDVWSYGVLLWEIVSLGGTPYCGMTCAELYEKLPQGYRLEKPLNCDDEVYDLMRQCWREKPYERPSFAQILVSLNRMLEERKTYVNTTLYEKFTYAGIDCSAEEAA
Procedure: as §1

Txk(h) = Txk(h) (Homo sapiens, UniProt P42681)
Procedure: as §1

ULK3(h) = ULK3(h) (Homo sapiens, UniProt Q6PHR2)
Procedure: as §1

WNK3(h) = WNK3(h) (Homo sapiens, UniProt Q9BYP7)
Procedure: as §1

cKit(D816H)(h) = cKit(D816H)(h) (Homo sapiens, UniProt P10721, D816H)
Procedure: as §1

cKit(V560G)(h) = cKit(V560G)(h) (Homo sapiens, UniProt P10721, V560G)
Procedure: as §1

cSRC(h) = cSRC(h) (Homo sapiens, UniProt P12931)
Procedure: as §1

Chain of ARK5(h) (O60285 whole entry): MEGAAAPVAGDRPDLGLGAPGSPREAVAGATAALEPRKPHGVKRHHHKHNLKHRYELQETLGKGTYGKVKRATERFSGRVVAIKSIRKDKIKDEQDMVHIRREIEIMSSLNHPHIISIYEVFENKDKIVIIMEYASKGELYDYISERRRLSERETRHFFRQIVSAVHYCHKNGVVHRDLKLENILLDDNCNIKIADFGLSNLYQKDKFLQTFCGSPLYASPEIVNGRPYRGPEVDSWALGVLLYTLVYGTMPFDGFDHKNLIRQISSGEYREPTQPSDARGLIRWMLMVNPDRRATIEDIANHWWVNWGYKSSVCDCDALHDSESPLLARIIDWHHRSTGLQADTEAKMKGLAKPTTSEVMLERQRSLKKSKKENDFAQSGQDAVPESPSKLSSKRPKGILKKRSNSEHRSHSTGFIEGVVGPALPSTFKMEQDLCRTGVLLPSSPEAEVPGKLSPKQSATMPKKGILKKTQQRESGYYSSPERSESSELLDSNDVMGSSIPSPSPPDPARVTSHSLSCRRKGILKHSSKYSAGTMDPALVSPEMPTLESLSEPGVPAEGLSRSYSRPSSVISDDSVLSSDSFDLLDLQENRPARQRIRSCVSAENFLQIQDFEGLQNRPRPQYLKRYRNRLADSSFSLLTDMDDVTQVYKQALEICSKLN

- Activity % (AMPKα2(h)): 5%
- Activity % (ARK5(h)): 2%
- Activity % (Ab1(H396P)(h)): −3%
- Activity % (CDK1/cyclinB(h)): 81%
- Activity % (CDK2/cyclinA(h)): 97%
- Activity % (CDK9/cyclin T1(h)): 52%
- Activity % (CK1γ1(h)): 96%
- Activity % (DYRK2(h)): 96%
- Activity % (EphA8(h)): 16%
- Activity % (EphB1(h)): −1%
- Activity % (ErbB4(h)): 90%
- Activity % (Fms(h)): 8%
- Activity % (JAK3(h)): 3%
- Activity % (JNK3(h)): 111%
- Activity % (Lck(h)): −8%
- Activity % (MAPK2(m)): 101%
- Activity % (MARK1(h)): 28%
- Activity % (MRCKβ(h)): 108%
- Activity % (MST2(h)): 79%
- Activity % (Met(D1246H)(h)): 18%
- Activity % (Met(D1246N)(h)): 20%
- Activity % (NEK3(h)): 82%
- Activity % (PAK2(h)): 65%
- Activity % (PKCβII(h)): 109%
- Activity % (PKD2(h)): 94%
- Activity % (PKG1α(h)): 100%
- Activity % (Pim-3(h)): 99%
- Activity % (Rse(h)): 55%
- Activity % (Rsk1(r)): 69%
- Activity % (Rsk2(h)): 65%
- Activity % (Rsk3(h)): 25%
- Activity % (SGK3(h)): 102%
- Activity % (TAO2(h)): 6%
- Activity % (Tie2(h)): 0%
- Activity % (Txk(h)): 20%
- Activity % (ULK3(h)): 11%
- Activity % (WNK3(h)): 86%
- Activity % (cKit(D816H)(h)): 9%
- Activity % (cKit(V560G)(h)): 3%
- Activity % (cSRC(h)): 2%
Structure (SMILES): Cc1cc2c(F)c(Oc3nc(Nc4cc(C5CC5)[nH]n4)cc(N4CCN(C)CC4)n3)cc(F)c2[nH]1 [NTW-3475]

Source: patent publication US9458137B2, “Substituted indol-5-ol derivatives and their therapeutical applications” (NantBioScience, Inc., priority 2012, dated 2016)
